Holding throughout (type): in vivo, mouse
One experiment concerns leptin. The experiment can be described thus: Expression of leptin in white adipocytes of mice i.c.v. administered with NPY Y5 agonist. The conditions noted are these: 5 μg/day i.c.v., non-treated C57BL/6N set to 1.
In a further experiment the test system is MCP-1. The experiment can be described thus: Expression of MCP-1 in white adipocytes of mice i.c.v. administered with NPY Y5 agonist (TaqMan PCR). The conditions noted are these: 5 μg/day i.c.v., non-treated C57BL/6N set to 1. As to the method: Model mice displaying obesity were constructed by the administration of NPY Y5 agonist in the manner described below.
Male mice (9-12 weeks old) (C57BL/6J, CLEA, Inc.) were bred at one animal per plastic cage under the conditions of: room temperature 23±2° C.; and humidity 55±15%. The light-dark cycle during breeding period was set to be 12 hours and the light was put on at 7 a.m. and turned off at 7 p.m. Mice were allowed access to ad lib feed (CE-2 (protein: 25.4 wt. %; carbohydrate: 50.3 wt. %; lipid: 4.4 wt. %), CLEA, Inc.) and water.
Mice were anesthetized with 80 mg/kg of sodium pentobarbital (Dinabott Inc.) and were locally implanted with sterilized 28-gage brain fusion cannulas (Alzet) at their right cerebral ventricles. The cannula was fixed vertically relative to the cranical bone at the position 0.4 mm behind and 0.8 mm side of the bregma and 2 mm deep. The cannula was fixed to the ventricle with dental cement. The cannula was connected to an osmotic pump (model no. 2002 manufactured by Alzet) filled with 10 mM phosphate buffer containing 0.05% bovine serum albumin via a polyvinylchloride tube. […]
The quantitative analysis of the expression amount of MCP-1 was performed by TaqMan PCR, using cDNA obtained from the white adipocytes according to RT-PCR. […]
Background: Quantitative PCR measures a nucleic acid by following its amplification.

Experiment [1] has as its system CD11b positive blood cells (monocytes/macrophages). The experiment can be described thus: Expression analysis of CD11b by flow cytometry in mice administered with MCP-1. The following applies: subcutaneous infusion by osmotic pump, 10 ng/0.5 μl/hr over 2 weeks; versus saline-administered control mice; FIG. 10(d)-(f). As to the method:
The analysis using flow cytometry was performed to study how the count of CD11b, which was a surface antigen of macrophages, or blood monocytes would vary upon administration of MCP-1.
Mice were first subcutaneously infused with. MCP-1, using an osmotic pump, at the rate of 10 ng/0.5 μl/hr over 2 weeks. Next, blood was collected from the tail veins of the control mice (C57BL/6), the DIO mice and the MCP-1 treated mice, respectively, using a heparinized capillary. After blood cells were collected from the blood by centrifugation at 300×g for 5 minutes, they were incubated with the FITC-labeled anti-mouse CD11b antibody (BD Biosciences) at room temperature for 15 minutes. The samples were incubated with the IgG2b isotype to serve as a non-specific binding control. After washing these cells with PBS, erythrocytes were lyzed with a lysis buffer at room temperature for 5 minutes. After washing the cells with PBS, the cells were suspended in PBS containing 0.5% formaldehyde. Flow cytometry was performed on this suspension, using an EPCIS Elite Flow Cytometer (Beckman Coulter, Inc.), to identify monocytes. Here, the analysis by flow cytometry was carried out by determining the population of monocytes/macrophages in the whole blood cells. In the flow cytometry 40,000 cells per each sample were analyzed with the fluorescence and scattered light as indices. […]
On the technique in general: In flow cytometry, cells or beads pass a laser one at a time.

As for D-Try^34 NPY [Y5 agonist], the “Expression amount of leptin” value in the experiment on leptin (Y5 agonist FF (ad lib fed)) is on record as 3.53; with leptin (Y5 agonist PF (pair feeding)), 1.77. Besides, the figures for the “Expression amount of MCP-1” value in the experiment on MCP-1 (Y5 agonist FF (ad lib fed)) and in the experiment on MCP-1 (Y5 agonist PF (pair feeding)) were 7.67 and 5.16, respectively.

For “MCP-1: monocyte chemotaxis factor protein of the CC chemokine subfamily, subcutaneously infused into mice”, in experiment [1], the “CD11b positive blood cell count” value was “increases”.

The record behind these values is patent US7510833B2, “Method for examining obesity or leanness” (Banyu Pharmaceutical Co., Ltd., priority 2003, dated 2009).
